Test results taken from the supplement of paper PMC10883282.
Where a name gives a salt, the structure may show the parent alone.

Assays:
Assay in all cases: relative viability vs DMSO control (72 h) (fraction); higher = more viable cells
A204 = test system: A204
How it was run: (§1)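 A 5 µM positive control and 0.1% DMSO vehicle ran alongside sarcoma cell lines seeded in 384-well plates to reach 80–90% confluence. Serially diluted compound, 2.5 µl from source plates of 10 mM to 0.0002 mM, was added after 24 h, and the plates were held 72 h at 37 °C, 5% CO2. Relative viability was worked out from ATPLite readings as percent growth averaged over up to triplicate wells. The values were rescaled so that 1 is full and 0 is none.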

G401 = test system: G401
How it was run: as §1

HS729 = test system: HS729
How it was run: as §1

HT1080 = test system: HT1080
How it was run: as §1

KHOS-NP = test system: KHOS-NP
How it was run: as §1

RD-ES = test system: RD-ES
How it was run: as §1

SK-ES-1 = test system: SK-ES-1
How it was run: as §1

SK-LMS-1 = test system: SK-LMS-1
How it was run: as §1

SW684 = test system: SW684
How it was run: as §1

SW872 = test system: SW872
How it was run: as §1

SW982 = test system: SW982
How it was run: as §1

VA-ES-BJ = test system: VA-ES-BJ
How it was run: as §1

CNC(=O)c1nnc(NC(=O)C2CC2)cc1Nc1cccc(-c2ncn(C)n2)c1OC
Conditions	relative viability
A204, 0.00017 µM	1.1
A204, 0.00051 µM	1.09
A204, 0.00152 µM	1.08
A204, 0.00457 µM	1.06
A204, 0.01372 µM	1.06
A204, 0.04115 µM	1.06
A204, 0.1235 µM	1.07
A204, 0.3704 µM	1.09
A204, 1.111 µM	1.11
A204, 3.333 µM	1.01
A204, 10 µM	0.714
G401, 0.00017 µM	1
G401, 0.00051 µM	0.988
G401, 0.00152 µM	1.03
G401, 0.00457 µM	1.03
G401, 0.01372 µM	1.074
G401, 0.04115 µM	1.02
G401, 0.1235 µM	1.04
G401, 0.3704 µM	1.031
G401, 1.111 µM	1.013
G401, 3.333 µM	0.999
G401, 10 µM	0.906
HS729, 0.00017 µM	0.934
HS729, 0.00051 µM	0.925
HS729, 0.00152 µM	0.869
HS729, 0.00457 µM	0.885
HS729, 0.01372 µM	0.9
HS729, 0.04115 µM	0.931
HS729, 0.1235 µM	0.906
HS729, 0.3704 µM	0.8552
HS729, 1.111 µM	0.86
HS729, 3.333 µM	0.84
HS729, 10 µM	0.761
HT1080, 0.00017 µM	1.07
HT1080, 0.00051 µM	1.04
HT1080, 0.00152 µM	1.05
HT1080, 0.00457 µM	1.03
HT1080, 0.01372 µM	1.02
HT1080, 0.04115 µM	1.05
HT1080, 0.1235 µM	1.01
HT1080, 0.3704 µM	1.042
HT1080, 1.111 µM	1.1
HT1080, 3.333 µM	1.11
HT1080, 10 µM	0.995
KHOS-NP, 0.00017 µM	1.07
KHOS-NP, 0.00051 µM	1.08
KHOS-NP, 0.00152 µM	1.063
KHOS-NP, 0.00457 µM	1.06
KHOS-NP, 0.01372 µM	1.07
KHOS-NP, 0.04115 µM	1.076
KHOS-NP, 0.1235 µM	1.08
KHOS-NP, 0.3704 µM	1.07
KHOS-NP, 1.111 µM	1.061
KHOS-NP, 3.333 µM	1.09
KHOS-NP, 10 µM	1.05
RD-ES, 0.00017 µM	0.987
RD-ES, 0.00051 µM	1.019
RD-ES, 0.00152 µM	1.01
RD-ES, 0.00457 µM	0.988
RD-ES, 0.01372 µM	1.02
RD-ES, 0.04115 µM	1.02
RD-ES, 0.1235 µM	1.05
RD-ES, 0.3704 µM	1.06
RD-ES, 1.111 µM	1
RD-ES, 3.333 µM	0.998
RD-ES, 10 µM	0.847
SK-ES-1, 0.00017 µM	1.03
SK-ES-1, 0.00051 µM	1.03
SK-ES-1, 0.00152 µM	1.1
SK-ES-1, 0.00457 µM	1.03
SK-ES-1, 0.01372 µM	1.07
SK-ES-1, 0.04115 µM	1.04
SK-ES-1, 0.1235 µM	1.02
SK-ES-1, 0.3704 µM	1.04
SK-ES-1, 1.111 µM	0.968
SK-ES-1, 3.333 µM	0.891
SK-ES-1, 10 µM	0.517
SK-LMS-1, 0.00017 µM	1.09
SK-LMS-1, 0.00051 µM	1.09
SK-LMS-1, 0.00152 µM	1.06
SK-LMS-1, 0.00457 µM	1.08
SK-LMS-1, 0.01372 µM	1.1
SK-LMS-1, 0.04115 µM	1.06
SK-LMS-1, 0.1235 µM	1.08
SK-LMS-1, 0.3704 µM	1.06
SK-LMS-1, 1.111 µM	1.05
SK-LMS-1, 3.333 µM	1.06
SK-LMS-1, 10 µM	0.797
SW684, 0.00017 µM	1.16
SW684, 0.00051 µM	1.15
SW684, 0.00152 µM	1.18
SW684, 0.00457 µM	1.15
SW684, 0.01372 µM	1.17
SW684, 0.04115 µM	1.17
SW684, 0.1235 µM	1.18
SW684, 0.3704 µM	1.2
SW684, 1.111 µM	1.15
SW684, 3.333 µM	1.14
SW684, 10 µM	1.12
SW872, 0.00017 µM	1.01
SW872, 0.00051 µM	1
SW872, 0.00152 µM	0.995
SW872, 0.00457 µM	1.026
SW872, 0.01372 µM	1.01
SW872, 0.04115 µM	1.02
SW872, 0.1235 µM	1.03
SW872, 0.3704 µM	1.02
SW872, 1.111 µM	1.02
SW872, 3.333 µM	0.957
SW872, 10 µM	0.768
SW982, 0.00017 µM	1.05
SW982, 0.00051 µM	1.06
SW982, 0.00152 µM	1.05
SW982, 0.00457 µM	1.04
SW982, 0.01372 µM	1.05
SW982, 0.04115 µM	1.06
SW982, 0.1235 µM	1.06
SW982, 0.3704 µM	1.07
SW982, 1.111 µM	1.06
SW982, 3.333 µM	1.02
SW982, 10 µM	0.722
VA-ES-BJ, 0.00017 µM	0.986
VA-ES-BJ, 0.00051 µM	0.996
VA-ES-BJ, 0.00152 µM	1.02
VA-ES-BJ, 0.00457 µM	1.04
VA-ES-BJ, 0.01372 µM	1.035
VA-ES-BJ, 0.04115 µM	1.03
VA-ES-BJ, 0.1235 µM	1.03
VA-ES-BJ, 0.3704 µM	1.01
VA-ES-BJ, 1.111 µM	1.04
VA-ES-BJ, 3.333 µM	0.974
VA-ES-BJ, 10 µM	0.828

C=C1C[C@@H]2CC[C@@]34C[C@H]5O[C@H]6[C@@H](O3)[C@H]3O[C@H](CC[C@@H]3O[C@H]6[C@H]5O4)CC(=O)C[C@@H]3[C@@H](OC)[C@@H](C[C@H](O)CN)O[C@H]3C[C@H]3O[C@@H](CC[C@@H]1O2)C[C@@H](C)C3=C [Eribulin Mesylate]
Conditions	relative viability
A204, 1.37 pM	1.12
A204, 4.1 pM	1.12
A204, 12.3 pM	1.09
A204, 37 pM	0.68
A204, 0.00011 µM	0.596
A204, 0.00033 µM	0.475
A204, 0.001 µM	0.414
A204, 0.003 µM	0.329
A204, 0.009 µM	0.2412
A204, 0.027 µM	0.224
A204, 460 fM	1.11
G401, 1.37 pM	1.08
G401, 4.1 pM	1.06
G401, 12.3 pM	1.06
G401, 37 pM	0.814
G401, 0.00011 µM	0.736
G401, 0.00033 µM	0.604
G401, 0.001 µM	0.513
G401, 0.003 µM	0.452
G401, 0.009 µM	0.417
G401, 0.027 µM	0.366
G401, 460 fM	1.05
HS729, 1.37 pM	1.04
HS729, 4.1 pM	0.987
HS729, 12.3 pM	0.965
HS729, 37 pM	0.874
HS729, 0.00011 µM	0.835
HS729, 0.00033 µM	0.756
HS729, 0.001 µM	0.6663
HS729, 0.003 µM	0.583
HS729, 0.009 µM	0.519
HS729, 0.027 µM	0.48
HS729, 460 fM	1.08
HT1080, 1.37 pM	1.1
HT1080, 4.1 pM	1.08
HT1080, 12.3 pM	1
HT1080, 37 pM	0.959
HT1080, 0.00011 µM	0.779
HT1080, 0.00033 µM	0.178
HT1080, 0.001 µM	0.08945
HT1080, 0.003 µM	0.06
HT1080, 0.009 µM	0.0428
HT1080, 0.027 µM	0.043
HT1080, 460 fM	1.054
KHOS-NP, 1.37 pM	1.11
KHOS-NP, 4.1 pM	1.119
KHOS-NP, 12.3 pM	1.113
KHOS-NP, 37 pM	1.11
KHOS-NP, 0.00011 µM	1.1
KHOS-NP, 0.00033 µM	1.05
KHOS-NP, 0.001 µM	0.922
KHOS-NP, 0.003 µM	0.669
KHOS-NP, 0.009 µM	0.479
KHOS-NP, 0.027 µM	0.438
KHOS-NP, 460 fM	1.1
RD-ES, 1.37 pM	1.04
RD-ES, 4.1 pM	1.02
RD-ES, 12.3 pM	0.953
RD-ES, 37 pM	0.472
RD-ES, 0.00011 µM	0.0831
RD-ES, 0.00033 µM	0.0672
RD-ES, 0.001 µM	0.041
RD-ES, 0.003 µM	0.0209
RD-ES, 0.009 µM	0.0188
RD-ES, 0.027 µM	0.0232
RD-ES, 460 fM	1.02
SK-ES-1, 1.37 pM	1.05
SK-ES-1, 4.1 pM	1.06
SK-ES-1, 12.3 pM	0.861
SK-ES-1, 37 pM	0.0486
SK-ES-1, 0.00011 µM	0.0799
SK-ES-1, 0.00033 µM	0.0234
SK-ES-1, 0.001 µM	0.0171
SK-ES-1, 0.003 µM	0.0147
SK-ES-1, 0.009 µM	0.0166
SK-ES-1, 0.027 µM	0.019
SK-ES-1, 460 fM	1.07
SK-LMS-1, 1.37 pM	0.971
SK-LMS-1, 4.1 pM	0.952
SK-LMS-1, 12.3 pM	0.909
SK-LMS-1, 37 pM	0.819
SK-LMS-1, 0.00011 µM	0.708
SK-LMS-1, 0.00033 µM	0.52
SK-LMS-1, 0.001 µM	0.482
SK-LMS-1, 0.003 µM	0.392
SK-LMS-1, 0.009 µM	0.359
SK-LMS-1, 0.027 µM	0.308
SK-LMS-1, 460 fM	0.996
SW684, 1.37 pM	1.16
SW684, 4.1 pM	1.13
SW684, 12.3 pM	1.11
SW684, 37 pM	0.994
SW684, 0.00011 µM	1
SW684, 0.00033 µM	0.865
SW684, 0.001 µM	0.806
SW684, 0.003 µM	0.812
SW684, 0.009 µM	0.822
SW684, 0.027 µM	0.828
SW684, 460 fM	1.15
SW872, 1.37 pM	1.08
SW872, 4.1 pM	1.09
SW872, 12.3 pM	1.06
SW872, 37 pM	0.946
SW872, 0.00011 µM	0.869
SW872, 0.00033 µM	0.8125
SW872, 0.001 µM	0.686
SW872, 0.003 µM	0.567
SW872, 0.009 µM	0.4921
SW872, 0.027 µM	0.429
SW872, 460 fM	1.1
SW982, 1.37 pM	1.061
SW982, 4.1 pM	1.08
SW982, 12.3 pM	1.05
SW982, 37 pM	1.04
SW982, 0.00011 µM	0.801
SW982, 0.00033 µM	0.523
SW982, 0.001 µM	0.41
SW982, 0.003 µM	0.336
SW982, 0.009 µM	0.307
SW982, 0.027 µM	0.309
SW982, 460 fM	1.02
VA-ES-BJ, 1.37 pM	1.06
VA-ES-BJ, 4.1 pM	1
VA-ES-BJ, 12.3 pM	0.901
VA-ES-BJ, 37 pM	0.72
VA-ES-BJ, 0.00011 µM	0.474
VA-ES-BJ, 0.00033 µM	0.391
VA-ES-BJ, 0.001 µM	0.437
VA-ES-BJ, 0.003 µM	0.359
VA-ES-BJ, 0.009 µM	0.295
VA-ES-BJ, 0.027 µM	0.244
VA-ES-BJ, 460 fM	1.08
